The values that follow come from patent US20050209278A1, “Piperidinyl- and piperazinyl-sulfonylmethyl hydroxamic acids and their use as protease inhibitors” (priority 2002, published 2005).

The target in one experiment is T1, MMP-9 (Homo sapiens, UniProt P14780).
T1 construct: made in house; host or cells: MMP-9-transfected HT1080 cells (spent media)
In words: In vitro MMP inhibition, Ki determination (fluorogenic substrate II). The experiment is classed as biochemical. The note with it: value not in parenthesis. The essentials:
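HT1080-derived MMP-9, activated with APMA, trypsin or MMP-3, incubated 1 hr at room temperature with inhibitor and 4 μM fluorogenic substrate II (at or below Km) in pH 7.5 Tris/NaCl/CaCl2 buffer; ex 330/em 420 nm. Ki from Morrison-equation regression, without substrate correction.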

Another experiment deals with T2, MMP-14 (Homo sapiens, UniProt P50281).
T2 construct: The catalytic domain enzyme was expressed in E. coli inclusion bodies, solubilized in urea; made in house
The experiment is described as above. The following applies: value not in parenthesis; read-out: MMP-14 Ki. The format is biochemical. The method, boiled down:
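E. coli-expressed, refolded MMP-14 catalytic domain, activated with APMA or trypsin, in 100 mM Tris-HCl pH 7.5, 100 mM NaCl, 10 mM CaCl2, 0.05% Brij-type detergent. Apparent Ki by Morrison-equation regression of velocity vs inhibitor and enzyme concentration.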

Each structure is given as a SMILES string. Some results are limits rather than exact numbers.

T1 sequence (P14780 107-707 limits assumed): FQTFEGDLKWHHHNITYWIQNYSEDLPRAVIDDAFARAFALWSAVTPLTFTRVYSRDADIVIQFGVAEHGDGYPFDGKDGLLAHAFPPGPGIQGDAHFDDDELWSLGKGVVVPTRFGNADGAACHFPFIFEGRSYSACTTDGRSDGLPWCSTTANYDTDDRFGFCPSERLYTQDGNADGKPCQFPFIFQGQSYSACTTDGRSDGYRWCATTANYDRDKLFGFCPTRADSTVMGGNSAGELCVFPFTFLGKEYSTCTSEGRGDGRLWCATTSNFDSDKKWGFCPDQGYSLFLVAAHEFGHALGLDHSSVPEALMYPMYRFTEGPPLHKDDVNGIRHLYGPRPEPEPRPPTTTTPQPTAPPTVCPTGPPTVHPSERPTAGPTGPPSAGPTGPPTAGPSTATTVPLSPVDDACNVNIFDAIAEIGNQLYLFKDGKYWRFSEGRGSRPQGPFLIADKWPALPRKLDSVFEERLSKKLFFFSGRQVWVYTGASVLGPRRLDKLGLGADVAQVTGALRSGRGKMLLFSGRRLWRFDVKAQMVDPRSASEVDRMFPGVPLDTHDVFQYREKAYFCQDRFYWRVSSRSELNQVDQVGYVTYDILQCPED

The term Ki denotes the equilibrium dissociation constant of an inhibitor or competing ligand from its target. In the case of `COc1ccc(-c2ccc(N3CCN(S(=O)(=O)C4(C(=O)NO)CCOCC4)CC3)nc2)cc1` [Example 61], the values for the Ki at MMP-9 and on MMP-14 were 12.3 nM and 199 nM, respectively.

Turning to `O=C(NO)C1(S(=O)(=O)N2CCN(c3ccc(OC(F)(F)C(F)F)cc3)CC2)CCSCC1` [Example 62], the Ki at MMP-9 was determined as 1.5 nM; at MMP-14, 1150 nM.

On to `CCCCOc1ccc(N2CCN(S(=O)(=O)C3(C(=O)NO)CC3)CC2)cc1` [Example 63], for which the results for the inhibition constant (Ki) at MMP-9 and on MMP-14 were 7.71 nM and more than 10000 nM, respectively.

`CCCCOc1ccc(N2CCN(S(=O)(=O)C3(C(=O)NO)CCN(c4ccc(OC(F)(F)C(F)F)cc4)CC3)CC2)cc1` [Example 65]: the inhibitory constant (Ki) was 128 nM on MMP-9 and more than 10000 nM at MMP-14.

For the molecule `O=C(NO)C1(S(=O)(=O)N2CCN(c3ccc4c(c3)OC(F)(F)C(F)(F)O4)CC2)CCOCC1` [Example 67], the inhibitory constant (Ki) at MMP-9 is 1380 nM; on MMP-14, more than 10000 nM.

Consider `O=C(NO)C1(S(=O)(=O)N2CCN(c3ccc(COCC(F)(F)C(F)(F)F)cc3)CC2)CCOCC1` [Example 70], for which the Ki on MMP-9 was 49.7 nM; on MMP-14 it was more than 10000 nM.

As to `CCCCOc1ccc(N2CCN(S(=O)(=O)C3(C(=O)NO)CCN(C(=O)c4ccco4)CC3)CC2)cc1` [Example 156], the Ki was 1.2 nM at MMP-9 and 2430 nM on MMP-14.

With `CCCCOc1ccc(N2CCN(S(=O)(=O)C3(C(=O)NO)CCN(c4nccs4)CC3)CC2)cc1` [Example 157], the figures for the Ki at MMP-9 and at MMP-14 were 4.28 nM and 2760 nM, respectively.

As to `CCCCOc1ccc(N2CCN(S(=O)(=O)C3(C(=O)NO)CCN(c4ncccn4)CC3)CC2)cc1` [Example 159], the Ki at MMP-9 stood at 1.93 nM; at MMP-14, 2060 nM.

Turning to `CCCCOc1ccc(N2CCN(S(=O)(=O)C3(C(=O)NO)CCN(C(=O)c4cccs4)CC3)CC2)cc1` [Example 160], the inhibition constant Ki at MMP-9 worked out at 1.79 nM; on MMP-14 it was 2760 nM.

In the case of `Cc1ccc(N2CCC(C(=O)NO)(S(=O)(=O)N3CCN(c4ccc(OCCCC(F)(F)F)cc4)CC3)CC2)cc1` [Example 161], the Ki is 134 nM on MMP-9 and more than 10000 nM on MMP-14.

Consider `O=C(NO)C1(S(=O)(=O)N2CCN(c3ccc(OCCN4CCCC4)cc3)CC2)CCOCC1` [Example 162], for which the Ki was 402 nM on MMP-9 and more than 10000 nM at MMP-14.

For `CCCCOc1ccc(N2CCN(S(=O)(=O)C3(C(=O)NO)CCN(CCOC)CC3)CC2)cn1` [Example 164], the Ki at MMP-9 amounted to 7.53 nM; on MMP-14, 8880 nM.

Turning to `CCCCOc1c(F)cc(N2CCN(S(=O)(=O)C3(C(=O)NO)CCN(CCOC)CC3)CC2)cc1F` [Example 165], the figures for the inhibition constant (Ki) at MMP-9 and at MMP-14 were 14.7 nM and 3650 nM, respectively.

Consider `COCCN1CCC(C(=O)NO)(S(=O)(=O)N2CCN(c3ccc(OCC(C)C)c(F)c3)CC2)CC1` [Example 166], for which the Ki is 2.22 nM on MMP-9 and more than 10000 nM on MMP-14.

Consider `CCCCCc1ccc(N2CCN(S(=O)(=O)C3(C(=O)NO)CCOCC3)CC2)nc1` [Example 167], for which the Ki amounted to 0.2 nM on MMP-9 and 458 nM at MMP-14.

Regarding `O=C(NO)C1(S(=O)(=O)N2CCN(c3ccccn3)CC2)CCOCC1` [Example 169], the Ki at MMP-9 came out at 4.99 nM; at MMP-14, 84.9 nM.

For the molecule `O=C(NO)C1(S(=O)(=O)N2CCN(c3ccc(SC(F)(F)F)cc3)CC2)CCOCC1` [Example 170], the inhibition constant Ki on MMP-9 worked out at 17.1 nM; at MMP-14, 453 nM.

On to `CCCc1ccc(N2CCN(S(=O)(=O)C3(C(=O)NO)CCN(c4ccc(C)cc4)CC3)CC2)cc1` [Example 171], for which the Ki was determined as 6.91 nM on MMP-9 and 4110 nM on MMP-14.

For `CCCCc1ccc(N2CCN(S(=O)(=O)C3(C(=O)NO)CCN(CCOC)CC3)CC2)cc1F` [Example 173], the inhibitory constant (Ki) amounted to 0.149 nM at MMP-9 and 1860 nM on MMP-14.

For the molecule `COCCN1CCC(C(=O)NO)(S(=O)(=O)N2CCN(c3ccc(C(C)=O)cc3)CC2)CC1` [Example 174], the Ki was 28.9 nM at MMP-9 and 2910 nM at MMP-14.

Regarding `CCCNC(=O)c1ccc(N2CCN(S(=O)(=O)C3(C(=O)NO)CCN(CCOC)CC3)CC2)cc1` [Example 175], the Ki on MMP-9 is 440 nM; at MMP-14 it was more than 10000 nM.

For `COCCN1CCC(C(=O)NO)(S(=O)(=O)N2CCN(c3ccccn3)CC2)CC1` [Example 176], the Ki was 9.63 nM at MMP-9 and 181 nM on MMP-14.

`CCCCC(=O)c1ccc(N2CCN(S(=O)(=O)C3(C(=O)NO)CCN(CCOC)CC3)CC2)cc1` [Example 177]: the values for the Ki on MMP-9 and on MMP-14 were 18.6 nM and more than 10000 nM, respectively.

Turning to `CCCc1cnc(N2CCN(S(=O)(=O)C3(C(=O)NO)CCN(CCOC)CC3)CC2)nc1` [Example 178], the inhibition constant Ki at MMP-9 came out at 2.23 nM; on MMP-14, 2590 nM.

In the case of `CCCC(C)Cc1ccc(N2CCN(S(=O)(=O)C3(C(=O)NO)CCN(CCOC)CC3)CC2)cc1` (stereo not shown) [Example 189], the results for the Ki at MMP-9 and at MMP-14 were 34.7 nM and more than 10000 nM, respectively.

On to `CCC(C)Cc1ccc(N2CCN(S(=O)(=O)C3(C(=O)NO)CCN(CCOC)CC3)CC2)cc1` (stereo not shown) [Example 190], for which the inhibition constant (Ki) amounted to 3.76 nM at MMP-9 and 6100 nM at MMP-14.

Consider `COCCN1CCC(C(=O)NO)(S(=O)(=O)N2CCN(c3ccc(CCCCC(C)C)cc3)CC2)CC1` [Example 191], for which the values for the inhibition constant (Ki) at MMP-9 and at MMP-14 were 4.21 nM and 6690 nM, respectively.

Take `COCCN1CCC(C(=O)NO)(S(=O)(=O)N2CCN(c3ccc(CC(C)C)cc3)CC2)CC1` [Example 192]: the Ki at MMP-9 was 9.11 nM; at MMP-14 it was 6980 nM.

For the molecule `CCc1ccc(N2CCN(S(=O)(=O)C3(C(=O)NO)CCN(CCOC)CC3)CC2)cc1` [Example 193], the values for the Ki at MMP-9 and at MMP-14 were 3.11 nM and 403 nM, respectively.

With `COCCN1CCC(C(=O)NO)(S(=O)(=O)N2CCN(c3ccc(C)cc3)CC2)CC1` [Example 194], the Ki is 7.19 nM on MMP-9 and 307 nM on MMP-14.

In the case of `COCCN1CCC(C(=O)NO)(S(=O)(=O)N2CCN(c3ccccc3)CC2)CC1` [Example 195], the figures for the inhibition constant (Ki) on MMP-9 and at MMP-14 were 23.2 nM and 414 nM, respectively.

Regarding `COCCN1CCC(C(=O)NO)(S(=O)(=O)N2CCN(c3nc4ccccc4o3)CC2)CC1` [Example 196], the Ki on MMP-9 worked out at 79.6 nM; on MMP-14, 6840 nM.

Take `CCCCCc1ccc(N2CCN(S(=O)(=O)C3(C(=O)NO)CCOCC3)CC2)nn1` [Example 197]: the results for the Ki at MMP-9 and on MMP-14 were 20.2 nM and more than 10000 nM, respectively.

Consider `O=C(NO)C1(S(=O)(=O)N2CCN(c3ccc(Cl)nn3)CC2)CCOCC1` [Example 198], for which the figures for the Ki at MMP-9 and at MMP-14 were 252 nM and 1280 nM, respectively.

Regarding `CCCCCCc1ccc(N2CCN(S(=O)(=O)C3(C(=O)NO)CCN(CCOC)CC3)CC2)cc1` [Example 199], the Ki at MMP-9 was 0.892 nM; on MMP-14, 4620 nM.

As for `CCCc1ccc(N2CCN(S(=O)(=O)C3(C(=O)NO)CCN(CCOC)CC3)CC2)cc1` [Example 200], the results for the Ki on MMP-9 and at MMP-14 were 0.28 nM and 842 nM, respectively.

Take `COCCN1CCC(C(=O)NO)(S(=O)(=O)N2CCN(c3ccc(Br)cc3)CC2)CC1` [Example 201]: the Ki on MMP-9 came out at 3.48 nM; at MMP-14 it was 120 nM.

As for `COCCN1CCC(C(=O)NO)(S(=O)(=O)N2CCN(c3ccc(OC(F)(F)F)cc3)CC2)CC1` [Example 202], the inhibition constant Ki at MMP-9 amounted to 4.67 nM; at MMP-14, 623 nM.

Regarding `O=C(NO)C1(S(=O)(=O)N2CCN(c3ccc(OC(F)(F)F)cc3)CC2)CCN(C2CC2)CC1` [Example 203], the inhibition constant (Ki) is 2.5 nM at MMP-9 and 569 nM at MMP-14.

With `CCCCCc1ccc(N2CCN(S(=O)(=O)C3(C(=O)NO)CCN(S(N)(=O)=O)CC3)CC2)cc1` [Example 205], the values for the Ki at MMP-9 and on MMP-14 were 248 nM and 5020 nM, respectively.

As to `CCCCCc1ccc(N2CCN(S(=O)(=O)C3(C(=O)NO)CCN(C(=O)CC)CC3)CC2)cc1` [Example 206], the figures for the Ki on MMP-9 and on MMP-14 were 0.62 nM and 110 nM, respectively.

As to `Cc1ccc(-c2ccc(N3CCN(S(=O)(=O)C4(C(=O)NO)CCOCC4)CC3)cc2)cc1` [Example 207], the results for the inhibitory constant (Ki) at MMP-9 and at MMP-14 were 12.3 nM and more than 10000 nM, respectively.

For `O=C(NO)C1(S(=O)(=O)N2CCN(c3ccc(-c4ccc(F)cc4)cc3)CC2)CCOCC1` [Example 208], the Ki on MMP-9 is 0.7 nM; at MMP-14, 621 nM.

For `O=C(NO)C1(S(=O)(=O)N2CCN(c3cnc(CCCC(F)(F)F)cn3)CC2)CCOCC1` [Example 209], the inhibition constant (Ki) on MMP-9 is 157 nM; at MMP-14 it was more than 10000 nM.

Turning to `O=C(NO)C1(S(=O)(=O)N2CCN(c3cnc(CCC(F)(F)C(F)(F)F)cn3)CC2)CCOCC1` [Example 210], the Ki was 141 nM on MMP-9 and 4470 nM on MMP-14.

Consider `O=C(NO)C1(S(=O)(=O)N2CCN(c3ccc(OCC(F)(F)C(F)(F)F)cc3)CC2)CCOCC1` [Example 212], for which the inhibition constant (Ki) was 2.91 nM at MMP-9 and 5630 nM on MMP-14.

As to `CC(C)Cc1ccc(N2CCN(S(=O)(=O)C3(C(=O)NO)CCOCC3)CC2)c(F)c1` [Example 213], the inhibition constant Ki at MMP-9 stood at 82.4 nM; at MMP-14, 4280 nM.

On to `CCCCc1nnc(N2CCN(S(=O)(=O)C3(C(=O)NO)CCOCC3)CC2)s1` [Example 214], for which the inhibitory constant (Ki) at MMP-9 was 220 nM; at MMP-14, more than 10000 nM.

Turning to `O=C(NO)C1(S(=O)(=O)N2CCN(c3nncs3)CC2)CCOCC1` [Example 215], the Ki at MMP-9 and at MMP-14 was more than 10000 nM each time.

On to `CCCc1nnc(N2CCN(S(=O)(=O)C3(C(=O)NO)CCOCC3)CC2)s1` [Example 216], for which the Ki at MMP-9 is 596 nM; at MMP-14 it was more than 10000 nM.

Consider `CCCCc1ccc(N2CCN(S(=O)(=O)C(C)C(=O)NO)CC2)nc1` (stereo not shown) [Example 217], for which the inhibition constant Ki on MMP-9 was found to be 0.45 nM; at MMP-14 it was 1510 nM.

Take `O=C(NO)C1(S(=O)(=O)N2CCN(c3cnc(CCC(F)(F)F)cn3)CC2)CCOCC1` [Example 218]: the Ki at MMP-9 worked out at 2.29 nM; on MMP-14, 4570 nM.
